From article PMC12606464, “Investigating NFE2L1 activators for targeted protein aggregate clearance: a follow-up study” (RSC Medicinal Chemistry, 2025)

System: NFE2L1/TCF11/NRF1, SQSTM1/p62, LC3, NQO1 and HSPA1A/HSP70-1 protein levels
Assay: Immunoblot analysis in HEK293 cells
Type: cell-based, human
Settings: for LC3-I protein level, Treatment geometric mean / LC3-II protein level, Treatment geometric mean / HSPA1A protein level, Treatment geometric mean / LC3-total protein level, Treatment geometric mean / NFE2L1 protein level, Treatment geometric mean / NQO1 protein level, Treatment geometric mean / SQSTM1 protein level, Treatment geometric mean: immunoblot quantification; for LC3-I protein level, Treatment geometric mean / LC3-II protein level, Treatment geometric mean / HSPA1A protein level, Treatment geometric mean / LC3-total protein level, Treatment geometric mean / NFE2L1 protein level, Treatment geometric mean / NQO1 protein level, Treatment geometric mean / SQSTM1 protein level, Treatment geometric mean / HSPA1A protein level, geometric mean of ratios / LC3-II protein level, geometric mean of ratios / LC3-total protein level, geometric mean of ratios / NFE2L1 protein level, geometric mean of ratios / NQO1 protein level, geometric mean of ratios / SQSTM1 protein level, geometric mean of ratios: Fig. 2B; for LC3-I protein level, Treatment geometric mean: control geometric mean = 0.24; for LC3-II protein level, Treatment geometric mean: control geometric mean = 0.73; for HSPA1A protein level, Treatment geometric mean / LC3-total protein level, Treatment geometric mean / NFE2L1 protein level, Treatment geometric mean / NQO1 protein level, Treatment geometric mean / SQSTM1 protein level, Treatment geometric mean: control geometric mean = 1; for HSPA1A protein level, geometric mean of ratios / LC3-II protein level, geometric mean of ratios / LC3-total protein level, geometric mean of ratios / NFE2L1 protein level, geometric mean of ratios / NQO1 protein level, geometric mean of ratios / SQSTM1 protein level, geometric mean of ratios: ratio paired t test, treatment vs control
Method: Fig. 2 (A) qPCRs of HEK293 cells treated with RUN compounds (7.5 μM) for 16 hours. The extracted RNA was reverse transcribed into cDNA and utilized for RT-qPCR (primers are listed in the SI, Table S1); the mRNA levels of RPLP0 were used for normalization. The experiment was performed in three biological replicates (n = 3). (B) Immunoblot analysis of proteins NFE2L1/TCF11/NRF1, SQSTM1/p62, LC3, NQO1 and HSPA1A/HSP70-1 in HEK293 cells after 16 h treatment with 7.5 μM RUN compounds. The protein levels were quantified by measuring the integrated fluorescence of the corresponding protein bands and normalized to the β-actin load. The full-length (F) and cleaved (C) forms of NFE2L1 were analyzed together. The experiment was performed in four biological replicates (n = 4) except for NFE2L1 (n = 3). (A and B) Results of RUN compounds were compared to the DMSO control using ratio paired t-tests corrected for multiple comparisons with Holm–Šídák's method (α = 0.05). *p < 0.05, **p < 0.01. Detailed results of the analysis are shown in SI Tables S5 and S6.
To confirm NFE2L1-controlled gene expression at the protein level, western blot analysis was performed. HEK293 cells were treated with selected RUN compounds for 16 hours, after which the protein levels were analyzed. […] Similar observations were made with SQSTM1 and LC3. As mentioned earlier, SQSTM1 directly binds to the LC3 region to facilitate the delivery of proteins for autophagic clearance.[62,64,65] Within cells, LC3 undergoes cleavage to form its cytosolic version, LC3-I, which is further converted into its membrane-bound form, LC3-II, which is anchored in autophagosomal membranes.[60,66] Consequently, both SQSTM1 and LC3 are widely regarded as markers of autophagy.[65] […] The increase in the LC3-II form indicates active autophagic processes. […]
HEK293 cells were treated with 7.5 µM RUN compounds for 16 h, then harvested and resuspended in lysis buffer [50 mM HEPES (pH 7.5), 5 mM EDTA, 150 mM NaCl, 2 mM ATP, and 1% Triton]. Cell lysates were subsequently centrifuged at 15,000 rpm and 4°C for 15 minutes, and then a protein concentration was determined using the Pierce BCA Protein Assay Kit (Thermo Fisher Scientific). Cell lysates were boiled for 5 min at 95 °C in a 6xSDS sample buffer [350 mM Tris-HCl (pH 6.8), 350 mM SDS, 30% (v/v) glycerol, 4% β-mercaptoethanol, 180 µM bromophenol blue]. Prepared samples (15 µg of proteins) were separated by SDS-PAGE (10, 12, or 16% Bis-Tris gels; 50 V for 5 min, then 200 V) and transferred onto a 0.45 µm nitrocellulose membrane (Bio-Rad). For LC3 level analysis, the 0.2 µm nitrocellulose membrane (Bio-Rad) was used. Membranes were blocked in Intercept® (TBS) Blocking Buffer (LI-COR Biosciences) for 1 h at room temperature and then incubated with primary antibodies in Intercept® (TBS) Blocking Buffer with 0.1% Tween-20 overnight at 4°C. Used primary antibodies: anti-NFE2L1/TCF11/SKN1/NRF1 monoclonal antibody (Cell Signalling; #8052; anti-NQO1 polyclonal antibody (Sigma-Aldrich; # HPA007308; 1:5.000), anti-LC3 antibody […]
(Sigma-Aldrich; #L8918), anti-p62/SQSTM antibody (Sigma-Aldrich; #P0067), anti-β-actin monoclonal antibody (Sigma-Aldrich; #A5441; 1:10.000). The resulting membranes were washed and incubated with near-infrared fluorophore-conjugated goat anti-mouse IRDye […]
COR Biosciences; #926-32211; 1:15.000) for 1 h at room temperature. Membranes were imaged using Odyssey® M NIR Imaging System (LI-COR Biosciences) and quantified using Image Studio software v. 6.0 (LI-COR Biosciences). The protein levels were quantified by measuring the integrated fluorescence of the corresponding protein bands and normalized to the β-actin loading control. Changes in protein levels after treatment with RUN compounds were analyzed using paired t-tests with correction for multiple comparisons using the Holm-Šídák method (α = 0.05) in GraphPad Prism (v 10.6.1).
2.7 Proteasome activity assay […]

[1] = HEK293, 7.5 μM, 16 h, versus DMSO

SMILES	NQO1 protein level [1]	Total LC3 protein level [1]	LC3-I protein level, Treatment geometric mean	LC3-II protein level, Treatment geometric mean	HSPA1A protein level, Treatment geometric mean	LC3-total protein level, Treatment geometric mean	NFE2L1 protein level, Treatment geometric mean	NQO1 protein level, Treatment geometric mean	SQSTM1 protein level, Treatment geometric mean	HSPA1A protein level, geometric mean of ratios	LC3-II protein level, geometric mean of ratios	LC3-total protein level, geometric mean of ratios	NFE2L1 protein level, geometric mean of ratios	NQO1 protein level, geometric mean of ratios	SQSTM1 protein level, geometric mean of ratios
COc1ccc(/C=C2\CC(NC(=O)c3ccccn3)C/C(=C\c3ccc(OC)c(OC)c3)C2=O)cc1OC (centres unmarked) [RUN-94]	notably boosting	significantly elevate	0.38	1.72	3.12	2.14	14.37	4.16	5.55	3.12	2.35	2.14	14.37	4.16	5.55
COc1ccc(/C=C2\CC(NC(=O)C3CCCC3)C/C(=C\c3ccc(OC)c(OC)c3)C2=O)cc1OC (centres unmarked) [RUN-89]	–	significantly elevate	0.26	1.88	4.38	2.16	13.41	3.31	4.74	4.38	2.56	2.16	13.41	3.31	–
COc1ccc(/C=C2\CC(N)C/C(=C\c3ccc(OC)c(OC)c3)C2=O)cc1OC (centres unmarked) [RUN-81]	–	–	0.29	1.57	3.49	1.88	6.78	3.12	3.55	3.49	2.14	1.88	6.78	3.12	3.55
